# Measurements: BindingDB's records for patent US9695131 (Bayer Pharma Aktiengesellschaft, 2017)
# pIC50: −log10 of the molar value. Several values for one entry are separate records, joined by “and”; a condition that tells them apart may be missing. Equal values may be shown once.
# Molecular target: T1, chymase (Golden hamster, UniProt A0A1U7QTH6)
# T1 sequence (A0A1U7QTH6 whole entry): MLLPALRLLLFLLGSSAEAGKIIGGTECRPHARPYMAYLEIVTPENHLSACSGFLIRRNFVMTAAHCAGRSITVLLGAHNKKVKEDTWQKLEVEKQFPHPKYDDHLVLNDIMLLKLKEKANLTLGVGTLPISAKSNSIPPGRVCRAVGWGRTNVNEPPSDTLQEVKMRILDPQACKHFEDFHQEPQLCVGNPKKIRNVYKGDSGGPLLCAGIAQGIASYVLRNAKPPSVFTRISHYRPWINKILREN
# Test: Enzymatic Chymase Assay
# Details: pH 7.5
row,pIC50,SMILES
1,7.44,"Cc1c(Cn2c(=O)c(-c3noc(=O)[nH]3)cn(-c3ccc(N4CCOC4=O)cc3)c2=O)cccc1C(F)(F)F [US9695131, 35]"
2,7.12,"COc1ccc(-n2cc(-c3noc(=O)[nH]3)c(=O)n(Cc3cccc(C(F)(F)F)c3C)c2=O)cc1 [US9695131, 37]"
3,6.89,"COc1ccc(-n2cc(-c3nnn[nH]3)c(=O)n(Cc3cccc(Cl)c3Cl)c2=O)cc1 [US9695131, 27]"
4,8.14,"Cn1c(=O)sc2cc(-n3cc(-c4nnn[nH]4)c(=O)n(C4CCc5c(Cl)cccc54)c3=O)ccc21 (racemic) [US9695131, 23]"
5,7.89,"Cn1c(=O)oc2cc(-n3cc(-c4nnn[nH]4)c(=O)n(C4CCCc5c(Cl)cccc54)c3=O)ccc21 (racemic) [US9695131, 30]"
6,7.66,"COc1ccc(-n2cc(-c3nnn[nH]3)c(=O)n(Cc3cccc(C(F)(F)F)c3C)c2=O)cc1OC [US9695131, 20]"
7,6.04,"COc1ccc(-n2cc(C(=O)NCCC(=O)O)c(=O)n(Cc3cccc(Cl)c3Cl)c2=O)cc1 [US9695131, 59]"
8,7.92,"COc1ccc(-n2cc(-c3nsc(=O)[nH]3)c(=O)n(Cc3cccc(C(F)(F)F)c3C)c2=O)cc1OC [US9695131, 40]"
9,8.24,"Cc1c(Cn2c(=O)c(-c3nnn[nH]3)cn(-c3ccc4c(c3)n(C)c(=O)n4C)c2=O)cccc1C(F)(F)F [US9695131, 19]"
10,7.36,"COc1ccc(-n2cc(-c3nnn[nH]3)c(=O)n(Cc3cccc(C(F)(F)F)c3Cl)c2=O)cc1 [US9695131, 26]"
11,7.72,"COc1ccc(-n2cc(-c3noc(=O)[nH]3)c(=O)n(Cc3cccc(C(F)(F)F)c3C)c2=O)cc1OC [US9695131, 36]"
12,7.52,"Cc1c(Cn2c(=O)c(-c3nnn[nH]3)cn(-c3ccc(N4CCOC4=O)cc3)c2=O)cccc1C(F)(F)F [US9695131, 25]"
13,8.34 and 8.55,"Cn1c(=O)n(C)c2cc(-n3cc(-c4nnn[nH]4)c(=O)n(C4CCc5c(Cl)cccc54)c3=O)ccc21 (centres undefined) [US9695131, 18]"
14,7.49,"Cc1c(Cn2c(=O)c(-c3nnn[nH]3)cn(-c3ccc(N4CCNC4=O)cc3)c2=O)cccc1C(F)(F)F [US9695131, 21]"

# Further lines, the compound ahead of its results:
row,SMILES,pIC50
1,"Cn1c(=O)oc2cc(-n3cc(-c4nnn[nH]4)c(=O)n([C@@H]4CCc5c4cccc5C(F)(F)F)c3=O)ccc21 [US9695131, 14]",8.46
2,"COC(=O)C(COC(C)(C)C)NC(=O)c1cn(-c2ccc(N3CCNC3=O)cc2)c(=O)n(Cc2cccc(C(F)(F)F)c2C)c1=O (centres undefined) [US9695131, 60]",5.80
3,"CCOC(=O)C(C)(C)NC(=O)c1cn(-c2ccc3c(c2)n(C)c(=O)n3C)c(=O)n(Cc2cccc(C(F)(F)F)c2C)c1=O [US9695131, 48]",7.27
4,"Cc1c(Cn2c(=O)c(-c3noc(=O)[nH]3)cn(-c3ccc4c(c3)n(C)c(=O)n4C)c2=O)cccc1C(F)(F)F [US9695131, 33]",8.31
5,"Cc1c(Cn2c(=O)c(C(=O)NC(C)C(=O)O)cn(-c3ccc4c(c3)C(C)(C)C(=O)N4C)c2=O)cccc1C(F)(F)F (racemic) [US9695131, 47]",8.38
6,"Cc1c(Cn2c(=O)c(C#N)cn(-c3ccc4c(c3)n(C)c(=O)n4C)c2=O)cccc1C(F)(F)F [US9695131, 6]",8.18
7,"Cc1c(Cn2c(=O)c(-c3noc(=O)[nH]3)cn(-c3ccc(N4CCNC4=O)cc3)c2=O)cccc1C(F)(F)F [US9695131, 34]",7.26
8,"Cn1c(=O)oc2cc(-n3cc(C(N)=O)c(=O)n([C@@H]4CCc5c4cccc5C(F)(F)F)c3=O)ccc21 [US9695131, 41]",7.92
9,"Cc1c(C#N)c(=O)n([C@@H]2CCc3c2cccc3C(F)(F)F)c(=O)n1-c1ccc2c(c1)oc(=O)n2C [US9695131, 12]",8.12
10,"Cc1c(Cn2c(=O)c(-c3nsc(=O)[nH]3)cn(-c3ccc(N4CCOC4=O)cc3)c2=O)cccc1C(F)(F)F [US9695131, 39]",7.80
11,"CCOC(=O)C1(NC(=O)c2cn(-c3ccc4c(c3)n(C)c(=O)n4C)c(=O)n(Cc3cccc(C(F)(F)F)c3C)c2=O)CCC1 [US9695131, 50]",7.41
12,"Cn1c(=O)oc2cc(-n3cc(C#N)c(=O)n([C@@H]4CCc5c4cccc5C(F)(F)F)c3=O)ccc21 [US9695131, 2]",7.74
13,"Cn1c(=O)sc2cc(-n3cc(C(N)=O)c(=O)n([C@@H]4CCc5c4cccc5C(F)(F)F)c3=O)ccc21 [US9695131, 42]",8.01
14,"Cn1c(=O)sc2cc(-n3cc(C#N)c(=O)n(C4CCc5c(Cl)cccc54)c3=O)ccc21 (racemic) [US9695131, 8]",7.28
15,"Cc1c(Cn2c(=O)c(C(=O)NC(CO)C(=O)O)cn(-c3ccc(N4CCNC4=O)cc3)c2=O)cccc1C(F)(F)F (centres undefined) [US9695131, 61]",7.77
16,"COC(=O)CCNC(=O)c1cn(-c2ccc(N3CCNC3=O)cc2)c(=O)n(Cc2cccc(C(F)(F)F)c2C)c1=O [US9695131, 53]",6.74
17,"Cc1c(Cn2c(=O)c(C(=O)NCC#N)cn(-c3ccc(N4CCNC4=O)cc3)c2=O)cccc1C(F)(F)F [US9695131, 55]",6.62
18,"Cn1c(=O)sc2cc(-n3cc(C#N)c(=O)n([C@@H]4CCc5c4cccc5C(F)(F)F)c3=O)ccc21 [US9695131, 3]",8.06
19,"Cn1c(=O)n(C)c2cc(-n3cc(C#N)c(=O)n(C4CCc5c(Cl)cccc54)c3=O)ccc21 (racemic) [US9695131, 7]",7.43
20,"Cn1c(=O)sc2cc(-n3cc(-c4nnn[nH]4)c(=O)n([C@@H]4CCc5c4cccc5C(F)(F)F)c3=O)ccc21 [US9695131, 15]",8.55
21,"Cc1c(Cn2c(=O)c(C#N)cn(-c3ccc(N4CCOC4=O)cc3)c2=O)cccc1C(F)(F)F [US9695131, 5]",7.54
22,"Cn1c(=O)oc2cc(-n3cc(C(=O)NC#N)c(=O)n([C@@H]4CCc5c4cccc5C(F)(F)F)c3=O)ccc21 [US9695131, 63]",8.59
23,"COc1ccc(-n2cc(C#N)c(=O)n(Cc3cccc(C(F)(F)F)c3C)c2=O)cc1OC [US9695131, 9]",7.46
24,"Cc1c(Cn2c(=O)c(C(N)=O)cn(-c3ccc(N4CCNC4=O)cc3)c2=O)cccc1C(F)(F)F [US9695131, 52]",7.03
25,"Cc1c(Cn2c(=O)c(C(=O)NC3(C(=O)O)CCC3)cn(-c3ccc4c(c3)n(C)c(=O)n4C)c2=O)cccc1C(F)(F)F [US9695131, 51]",8.52
26,"Cn1c(=O)oc2cc(-n3cc(-c4noc(=O)[nH]4)c(=O)n([C@@H]4CCc5c4cccc5C(F)(F)F)c3=O)ccc21 [US9695131, 38]",8.09
27,"Cc1c(Cn2c(=O)c(C(=O)NC(C)(C)C(=O)O)cn(-c3ccc4c(c3)n(C)c(=O)n4C)c2=O)cccc1C(F)(F)F [US9695131, 49]",8.44
28,"Cc1c(Cn2c(=O)c(C#N)cn(-c3ccc(N4CCNC4=O)cc3)c2=O)cccc1C(F)(F)F [US9695131, 4]",7.32
29,"Cc1c(Cn2c(=O)c(C(=O)NC(C)C(=O)O)cn(-c3ccc(N4CCNC4=O)cc3)c2=O)cccc1C(F)(F)F (racemic) [US9695131, 45]",7.60
30,"Cc1c(Cn2c(=O)c(C(=O)NC(C)C(=O)O)cn(-c3ccc4c(c3)ncn4C)c2=O)cccc1C(F)(F)F (racemic) [US9695131, 57]",7.72
